Data on seven molecules can be found in US20210253598A1, “ARYL ANNULATED MACROCYCLIC INDOLE DERIVATIVES” (priority 2017, published 2021).

The conditions of data set [1]: the molecule shown is the open-chain precursor, crosslinker bond, 11-membered ring.
A further data set has as its target BCL-2 (Homo sapiens, UniProt P10415). The experiment in a line: Protein-protein interaction assay BCL-2/Bad BH3 peptide, TR-FRET (BCL-2 assay, Assay 3). In kind it is binding. As to conditions: His-BCL-2 / Bad BH3 peptide, median. (In general: In TR-FRET formats the signal depends on donor and acceptor labels being close together.)
Data set [2] deals with SUDHL5. The experiment in a line: Anti-proliferative effect in SUDHL5 cells, CellTiter-Glo (Assay 7). Type of data set: cell-based. Summed up:
(§1)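 Cells were plated and incubated overnight at 37 °C alongside a day 0 reference plate, then exposed to compound for 72 h. Viability was read by CellTiter-Glo luminescence, and IC50s were calculated using day 0 values and DMSO controls as references.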
(In ATP-based viability assays light output follows the ATP content of the culture.)

The test system of data set [3] is SUDHL5. The experiment in a line: Induction of caspase-3/7 activity in SUDHL5 cells (Assay 4). In kind it is cell-based. An outline of the steps:
(§2)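 Luminescent Caspase-Glo 3/7 read-out in SUDHL5 and SUDHL10 cells after 3 h compound exposure at 37 °C, followed by 1 h reagent incubation.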

Data set [4] has as its system SUDHL5. The experiment in a line: Induction of cytotoxicity in SUDHL5 cells, CellTiter-Glo (Assay 6). As to conditions: SUDHL5, 5 hours incubation, median, read-out: Cytotox SUDHL5 [M] (median). In kind it is cell-based. Summed up: (§3)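 Luminescent ATP read-out (CellTiter-Glo) after 5 h compound exposure at 37° C. Cells seeded the day before; medium-only wells as background; rim wells excluded.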

In data set [5] the test system is SUDHL10. The experiment in a line: Induction of cytotoxicity in SUDHL10 cells, CellTiter-Glo (Assay 6). As to conditions: SUDHL10, 5 hours incubation, median, read-out: Cytotox SUDHL10 [M] (median). In kind it is cell-based. An outline of the steps: as §3
For another data set, the target named is BCL-XL (Homo sapiens, UniProt Q07817). The experiment in a line: Protein-protein interaction assay BCL-XL/Bad BH3 peptide, TR-FRET (BCL-XL assay, Assay 2). In kind it is binding. As to conditions: His-BCL-XL / Bad BH3 peptide, median.
Chain of BCL-XL (Q07817 1-212): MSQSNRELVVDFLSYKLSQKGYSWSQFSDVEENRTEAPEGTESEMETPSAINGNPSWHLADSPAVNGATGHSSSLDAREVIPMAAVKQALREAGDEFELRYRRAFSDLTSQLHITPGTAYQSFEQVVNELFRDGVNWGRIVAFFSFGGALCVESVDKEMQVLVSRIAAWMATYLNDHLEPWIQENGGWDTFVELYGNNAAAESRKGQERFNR
Data set [6] deals with T1, MCL-1 (Homo sapiens, UniProt Q07820, K194A/K197A/R201A). The experiment in a line: Protein-compound interaction assay, surface plasmon resonance (SPR assay, Assay 8). As to conditions: geometric mean; for Kd: KD [M]. In kind it is binding. From the text: Protein-Compound Interaction Assay (SPR Assay)
T1 sequence (Q07820 173-321 K194A/K197A/R201A, looked up): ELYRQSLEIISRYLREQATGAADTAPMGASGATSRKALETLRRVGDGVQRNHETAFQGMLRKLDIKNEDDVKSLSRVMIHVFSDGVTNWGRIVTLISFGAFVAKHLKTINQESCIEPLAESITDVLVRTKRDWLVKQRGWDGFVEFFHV
The ability of the compounds described in this invention to bind to MCL-1 may be determined using surface plasmon resonance (SPR). This allows for the quantification of binding in terms of the equilibrium dissociation constant (KD [M]), as well as association and dissociation rate constants (kon [1/M 1/s] and koff [1/s], respectively). The measurements may be performed using Biacore® T200 or Biacore® S200 instruments (GE Healthcare).
Briefly, carboxymethylated dextran biosensor chips (Series S Sensor Chip CM5, GE Healthcare) were activated with 1-ethyl-3-(3-dimethylaminopropyl)-carbodiimide hydrochloride (EDC) and N-hydroxysuccinimide (NHS) according to the supplier's instructions. MBP-MCL-1 was diluted in 1×PBS-P+ (GE Healthcare) and injected on the activated chip surface. Subsequently, a solution of 1 M ethanolamine-HCl (GE Healthcare) was injected to block unreacted groups, resulting in approximately 400-2500 response units (RU) of immobilized protein. A reference surface was generated by treatment with NHS-EDC and ethanolamine-HCl. […] Compounds were injected for 60 s followed by a dissociation time of up to 1000 s.
The double-referenced sensorgrams were fit to a simple reversible Langmuir 1:1 reaction mechanism as implemented in the Biacore® T200 and S200 evaluation software (T200 evaluation software version 2.0 and S200 evaluation software version 1.0, GE Healthcare).
(In general: In SPR one partner is held on a chip, and binding of the other changes the refractive index at the surface.)

Data set [7] addresses T1, MCL-1. The experiment in a line: Protein-protein interaction assay MCL-1/Noxa BH3 peptide, TR-FRET (MCL-1 assay, Assay 1). In kind it is binding. As to conditions: MCL-1 Assay [M] (median), MBP-MCL-1 / Noxa BH3 peptide. An outline of the steps:
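TR-FRET competition between compounds and a biotin-PEG Noxa BH3 tracer for 1 nM MBP-MCL-1 (residues 173-321). Incubation was 1 h at 22 °C in the dark, then overnight at 4 °C, in 50 mM Tris pH 7 buffer with KF and DTT, after a 10-min compound pre-equilibration. Normalized ratios were fitted with a 4-parameter Hill equation to give IC50.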

For data set [8], the system named is SUDHL10. The experiment in a line: Induction of caspase-3/7 activity in SUDHL10 cells (Assay 4). Type of data set: cell-based. An outline of the steps: as §2
A further data set deals with AMO-1. The experiment in a line: Anti-proliferative effect in AMO-1 cells, CellTiter-Glo (Assay 7). In kind it is cell-based. As to conditions: read-out: Antiproli AMO-1; AMO-1, 72 hours incubation, CellTiter-Glo; several values per example. Summed up:
as §1

Another data set has as its system A2780. The experiment in a line: Anti-proliferative effect in A2780 cells, CellTiter-Glo (Assay 7). Type of data set: cell-based. As to conditions: Homo sapiens, A2780, 72 h, read-out: Antiproli A2780 [M], A2780, 72 hours incubation, CellTiter-Glo; several values per example. An outline of the steps:
as §1

A further data set relates to MV-4-11. The experiment in a line: Anti-proliferative effect in MV-4-11 cells, CellTiter-Glo (Assay 7). In kind it is cell-based. As to conditions: Homo sapiens, MV4-11, 72 h, read-out: Antiproli MV-4-11 [M], MV-4-11, 72 hours incubation, CellTiter-Glo; several values per example. An outline of the steps:
as §1

Where [9] appears, read: SUDHL5, 72 hours incubation, CellTiter-Glo, median, read-out: Antiproli SUDHL5 [M] (median).
[10] abbreviates: SUDHL5, 3 hours treatment, Caspase-Glo 3/7, median, read-out: Caspase SUDHL5 [M] (median).
Setting [11] is: SPR, immobilized MBP-MCL-1, 25° C.
[12] abbreviates: SUDHL10, 3 hours treatment, Caspase-Glo 3/7, median, read-out: Caspase SUDHL10 [M] (median).
The mark [13] stands for this setting: read-out: Caspase SUDHL5 [M] (median), SUDHL5, 3 hours treatment, Caspase-Glo 3/7.
Where [14] appears, read: read-out: Caspase SUDHL10 [M] (median), SUDHL10, 3 hours treatment, Caspase-Glo 3/7.

Where “and” joins values, the source holds several entries; their conditions need not be identical. Equal values may be shown once. Where a name gives a salt, the structure may show the parent alone. Read-outs that look alike come from different tables or passages of the source.

Chain of BCL-2 (P10415 1-211): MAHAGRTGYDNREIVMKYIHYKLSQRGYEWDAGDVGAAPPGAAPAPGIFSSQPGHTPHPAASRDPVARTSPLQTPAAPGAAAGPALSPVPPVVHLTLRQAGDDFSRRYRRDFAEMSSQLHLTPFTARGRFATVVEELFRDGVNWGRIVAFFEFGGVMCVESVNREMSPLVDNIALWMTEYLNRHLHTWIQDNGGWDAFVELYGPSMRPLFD
Description for BCL-2: The dose-dependent inhibition by the compounds described in this invention of the interaction between BCL-2 and the BH3 domain of Bad (both human) was determined using a steady state binding competition assay with time-resolved fluorescence energy transfer (TR-FRET) readout. For that purpose BCL-2 (amino acids 1-211, C-terminal fused to a hexahistidine (6×His) tag (SEQ ID 5) and a synthetic Bad BH3-derived peptide of sequence Biotin-PEG2-PEG2-[sequence]-Nle-[sequence]-amide (SEQ ID 4) served as protein receptor and tracer ligand respectively. The recombinant BCL-2 protein (expressed in E. coli) was purchased from BPS Bioscience (San Diego, Calif., USA). The Bad BH3-derived peptide can be obtained from e.g. Biosyntan (Berlin, Germany).
For that, 100-fold concentrated DMSO solutions were prepared by serial dilutions (1:3.4) of a 2 mM stock solution in a clear, 384-well microtiter plate (Greiner Bio-One, Frickenhausen, Germany). From there, 50 nl were transferred in a dark test plate (Greiner Bio-One, Frickenhausen, Germany). The assay was initiated by addition of 2 μl of a 2,5-fold concentrated His-BCL-2 solution (usually for a 1 nM end concentration in 5 μl reaction volume) in aqueous assay buffer [50 mM Tris/HCl pH 7, 100 mM sodium chloride (NaCl), 50 mM potassium fluoride (KF), 0.005% Tween-20, 2 mM DTT, 0.1% bovine gamma globulin (BGG)] to the compounds in the assay plate. This was followed by a 10-minute incubation step at 22° C. for pre-equilibration of the putative complex between His-BCL-2 and the compounds.
The mixture was incubated in the dark for one hour at 22° C. and then overnight at 4° C. The formation of BCL-2/Bad complexes was determined by measuring the resonance energy transfer of the anti-His-Eu-cryptate antibody to the streptavidin-XL665 present in the reaction. For that purpose, the fluorescence emission at 620 nm and 665 nm after excitation at 330-350 nm was measured in a TR-FRET measuring instrument, for instance a Rubystar or a Pherastar (both from BMG Lab Technologies, Offenburg, Germany) or a Viewlux (Perkin-Elmer). The ratio of the emission at 665 nm and at 622 nm was used as indicator of the amount of BCL-2/Bad complexes present.
(§4) The resulting data (ratio) were normalized, taking 0% inhibition as the mean value of control measurements (usually 32 data points) where all reagents were included. In this case 50 nl DMSO were used instead of compounds. […] IC50 values were determined by regression analysis based on a 4 parameter equation (minimum, maximum, IC50, Hill; Y=Max+(Min−Max)/(1+(X/IC50)^Hill) using the Screener Software (Genedata).
Description for BCL-XL: Protein-Protein Interaction Assay: BCL-XL/Bad BH3 Peptide (BCL-XL Assay)
The dose-dependent inhibition by the compounds described in this invention of the interaction between BCL-XL and the BH3 domain of Bad (both human) was determined using a steady state binding competition assay with time-resolved fluorescence energy transfer (TR-FRET) readout. For that purpose BCL-XL (amino acids 1-212, C-terminal fused to a hexahistidine (6×His) tag (SEQ ID 3) and a synthetic Bad BH3-derived peptide of sequence Biotin-PEG2-PEG2-[sequence]-Nle-[sequence]-amide (SEQ ID 4) served as protein receptor and tracer ligand respectively. The recombinant BCL-XL protein (expressed in E. coli) was purchased from BPS Bioscience (San Diego, Calif., USA). The Bad BH3-derived peptide can be obtained from e.g. Biosyntan (Berlin, Germany).
For that, 100-fold concentrated DMSO solutions were prepared by serial dilutions (1:3.4) of a 2 mM stock solution in a clear, 384-well microtiter plate (Greiner Bio-One, Frickenhausen, Germany). From there, 50 nl were transferred in a dark test plate (Greiner Bio-One, Frickenhausen, Germany). The assay was initiated by addition of 2 μl of a 2,5-fold concentrated His-BCL-XL solution (usually for a 1 nM end concentration in 5 μl reaction volume) in aqueous assay buffer [50 mM Tris/HCl pH 7, 100 mM sodium chloride (NaCl), 50 mM potassium fluoride (KF), 0.005% Tween-20, 2 mM DTT, 0.1% bovine gamma globulin (BGG)] to the compounds in the assay plate. This was followed by a 10-minute incubation step at 22° C. for pre-equilibration of the putative complex between His-BCL-XL and the compounds.
The mixture was incubated in the dark for one hour at 22° C. and then overnight at 4° C. The formation of BCL-XL/Bad complexes was determined by measuring the resonance energy transfer of the anti-His- Eu-cryptate antibody to the streptavidin-XL665 present in the reaction. For that purpose, the fluorescence emission at 620 nm and 665 nm after excitation at 330-350 nm was measured in a TR-FRET measuring instrument, for instance a Rubystar or a Pherastar (both from BMG Lab Technologies, Offenburg, Germany) or a Viewlux (Perkin-Elmer). The ratio of the emission at 665 nm and at 622 nm was used as indicator of the amount of BCL-XL/Bad complexes present.
as §4

`CCOC(=O)c1[nH]c2c(-c3c(CC)nn(C)c3CO)c(Cl)ccc2c1CCCOc1cccc2cc(F)ccc12` gave a ring closure, isolated yield in data set [1] (1,2-bis(bromomethyl)benzene/Cs2CO3, THF/MeCN, 35.9 mM, 50.0 °C) of 62%.
As for `CCOC(=O)c1[nH]c2c(-c3c(CO)nn(C)c3C)c(Cl)ccc2c1CCCOc1cccc2ccccc12`, the ring closure, isolated yield in data set [1] (2,3-bis(chloromethyl)pyrazine/Cs2CO3/NaI, MeCN, 167.0 mM, 70.0 °C) is 13%; in data set [1] (2,3-bis(chloromethyl)pyridine HCl/Cs2CO3/NaI, MeCN, 94.0 mM, 75.0 °C), 10%.
As to `CCOC(=O)c1[nH]c2c(-c3c(CO)nn(C)c3CC)c(Cl)ccc2c1CCCOc1cccc2cc(F)ccc12`, the ring closure, isolated yield in data set [1] (1,2-bis(bromomethyl)benzene/Cs2CO3, THF/MeCN, 36.4 mM, 50.0 °C) stood at 94%.
A word on the Kd: it is a measure of binding affinity in units of concentration. Low values mean higher affinity, high ones lower affinity. Regarding `Cc1c2c(nn1C)COCc1ccccc1Cn1c(C(=O)O)c(CCCOc3cccc4ccccc34)c3cccc-2c31` (single isomer, unassigned; enantiomer 1) [Example 2, 4,5-Dimethyl-17-[3-(naphthalen-1-yloxy)propyl]-5,7,9,14-tetrahydroindolo[7,1-fg]pyrazolo[3,4-d][2,8]benzoxazacycloundecine-16-carboxylic acid-N-ethylethanamine Salt (Enantiomer 1)], the IC50 against BCL-2 was > 20 µM; in the data set on SUDHL5 [2] (setting [9]), 2.9e-06 M; in the data set on SUDHL5 [4] it was 2.3e-06 M; in the data set with SUDHL10 [5], 7.3e-06 M; against BCL-XL, > 20 µM; at MCL-1 [7] it was 2.3e-09 M. Besides, the EC50 was found to be 2e-06 M in the data set with SUDHL5 [3] (setting [10]) and 7.7e-06 M in the data set with SUDHL10 [8] (setting [12]). This molecule displayed an equilibrium dissociation constant (Kd) at MCL-1 [6] (setting [11]) of 6e-09 M. Also, the “kon [1/M 1/s]” value at MCL-1 [6] (setting [11]) is 1.1E7 1/M 1/s. For the same molecule, the koff at MCL-1 [6] (read-out: koff [1/s], SPR, immobilized MBP-MCL-1, 25° C.) was determined as 0.068 s⁻¹.
Turning to `Cc1c2c(nn1C)CN(C)Cc1ccccc1Cn1c(C(=O)O)c(CCCOc3cccc4ccccc34)c3cccc-2c31` (single isomer, unassigned; enantiomer 1) [Example 15, 4,5,8-Trimethyl-17-[3-(naphthalen-1-yloxy)propyl]-7,8,9,14-tetrahydro-5H-indolo[1,7-bc]-pyrazolo[4,3-e][2,8]benzodiazacycloundecine-16-carboxylic acid-N-ethylethanamine Salt (Enantiomer 1)], the IC50 against BCL-2 was > 20 µM; in the data set with AMO-1, 6.25 µM and 5.63 µM; in the data set with SUDHL5 [2] (Homo sapiens, SU-DHL-5, 72 h, read-out: Antiproli SUDHL5 [M] (median), SUDHL5, 72 hours incubation, CellTiter-Glo), 2.8e-06 M; with SUDHL5 [4], 3.3e-06 M; in the data set with A2780, > 3.3e-05 M; with SUDHL10 [5] it was 1.1e-05 M. The figures for the IC50 against BCL-XL and against MCL-1 [7] were > 20 µM and 6.9e-09 M, respectively. Further, the EC50 was found to be 2.6e-06 M in the data set on SUDHL5 [3] (setting [13]) and 1.2e-05 M in the data set on SUDHL10 [8] (setting [14]).
Take `CCc1c2c(nn1C)COCc1ccccc1Cn1c(C(=O)O)c(CCCOc3cccc4ccccc34)c3ccc(F)c-2c31` (single isomer, unassigned; enantiomer 1) [Example 71, (−)-4-Ethyl-3-fluoro-5-methyl-17-{3-[(naphthalen-1-yl)oxy]propyl}-5,7,9,14-tetrahydroindolo[7,1-fg]pyrazolo[3,4-d][2,8]benzoxazacycloundecine-16-carboxylic acid-N-ethylethanamine Salt (Enantiomer 1)]: the IC50 was determined as 4.81e-06 M in the data set on MV-4-11; 12.8 µM against BCL-2; 3.48 µM with AMO-1; 2.5e-06 M in the data set with SUDHL5 [2] (read-out: Antiproli SUDHL5 [M] (median), SUDHL5, 72 hours incubation, CellTiter-Glo); 1.9e-06 M in the data set on SUDHL5 [4]; 9.41e-06 M in the data set on A2780. The IC50 is 3.6e-06 M in the data set with SUDHL10 [5], > 20 µM against BCL-XL and 1.2e-09 M at MCL-1 [7]. Moreover, the EC50 was determined as 1.6e-06 M in the data set with SUDHL5 [3] (setting [13]) and 4e-06 M in the data set on SUDHL10 [8] (setting [14]).
As for `Cc1c2c(nn1C)COCc1ccccc1Cn1c(C(=O)O)c(CCCOc3cccc4ccccc34)c3cccc-2c31` (single isomer, unassigned; enantiomer 2) [Example 3, 4,5-Dimethyl-17-[3-(naphthalen-1-yloxy)propyl]-5,7,9,14-tetrahydroindolo[7,1-fg]pyrazolo[3,4-d][2,8]benzoxazacycloundecine-16-carboxylic acid-N-ethylethanamine Salt (Enantiomer 2)], the IC50 is 7.7e-06 M in the data set on SUDHL5 [2] (setting [9]), 8.3e-06 M in the data set on SUDHL5 [4], > 3.3e-05 M with SUDHL10 [5] and 2.7e-08 M at MCL-1 [7]. Besides, the EC50 with SUDHL5 [3] (setting [10]) is > 1.2e-05 M; in the data set on SUDHL10 [8] (setting [12]), > 3.3e-05 M. In addition, the Kd at MCL-1 [6] (setting [11]) was 1.7e-07 M. The “koff” value at MCL-1 [6] (setting [11]) is 0.046 s⁻¹. Moreover, at MCL-1 [6] (setting [11]), the “kon [1/M 1/s]” value was 2.8E5 1/M 1/s.
